We go through four compounds from patent US8791067B2, “Method for treating malaria” (Morehouse School of Medicine, priority 2012, dated 2014).

Holding throughout (type): cell-based
Experiment [1] concerns HO-1. The experiment can be described thus: HO-1 expression in mouse brain endothelial cell line CRL2581. The conditions noted are these: CRL2581 cells; for expression of HO-1 mRNA and protein: data not shown. An excerpt: (§1) FIGS. 6D and 6E show protein expression of CXCL10 relative to actin in untreated control cells (D, E) and in cells treated with siSTAT3 (D), HEME (D, E), siSTAT3+HEME (D), AG490 (E) or AG490+HEME (E).
(§2) High level of free HEME produced during malaria infection causes inflammation that damages host vascular endothelium and is a major contributor to pathogenesis of severe malaria. To determine how HEME stimulates HO-1, CXCL10 and STAT3 signaling pathways in vitro, mouse brain endothelial cell line CRL2581 was treated with HEME and the effects of HEME on expression of HO-1, CXCL10 and STAT3 activation was assessed. […] When pSTAT3 was reduced by short interfering STAT3 (siSTAT3) (FIG. 6B) or pharmacological inhibitor of Jak, AG490 (FIG. 6C), HO-1 protein expression was inhibited correspondingly.

The test system of experiment [2] is STAT3. The experiment can be described thus: STAT3 activation (pSTAT3) in HEME-treated mouse brain endothelial cell line CRL2581. The conditions noted are these: CRL2581 cells; for pSTAT3 level: FIG. 6B, 6C, 6G.
Text: as §1, §2

The subject of experiment [3] is JAK/STAT3 signaling pathway. The experiment is described as follows: Human JAK/STAT signaling pathway real time RT^2 Profile PCR arrays in HBVEC. The conditions noted are these: HBVEC treated with 20 μM HEME vs vehicle; FIG. 8. As for the experimental part: Target genes of JAK/STAT3 signaling pathway upon HEME treatment was further assessed using real time RT^2 Profile PCR arrays (Qiagen, PAHS-039A). The results shown in FIG. 7 are expressed as the fold changes in expression obtained by comparing HBVEC treated with 20 μM HEME or with vehicle as control. […] The up regulated genes include STAT-induced gene matrix metallopeptidase 3 (MMP3), apoptosis-related gene CCAAT/enhancer binding protein (C/EBPb), Fc fragment of IgG, high affinity Ia, receptor (FCGR1A), Jun B proto-oncogene (JUNB), nuclear factor of kappa light polypeptide gene enhancer in B-cells 1 (NFκB), suppressor of cytokine signaling (SOCS3), SOCS4 and signal transducer and activator of transcription 4 (STAT4).

In experiment [4] the test system is CXCL10. The experiment can be described thus: CXCL10 expression and promoter activity in mouse brain endothelial cell line CRL2581. As to conditions: CRL2581 cells.
Text: as §1, §2

The test system of experiment [5] is Human brain microvascular endothelial cells (HBVEC). The experiment can be described thus: HEME-induced cell death of HBVEC by MTT assay. As to conditions: HEME+AG490 (50 μmol/l) for 24 h, FIG. 7. On the procedure:
Human brain microvascular endothelial cells (HBVEC) were treated with HEME or with HEME plus AG490 and monitored for cell death progression by MTT assay.
Cell death progression in HBVEC cultured after treatment with HEME or HEME+AG490 (50 μmol/l) for 24 h as assayed by MTT assay (*P<0.05, n=3 triplicate experiments). The curves correspond to 3 experiments run in parallel. In all the samples, the same concentration of vehicle (DMSO, 0.1%) was used.
On the technique in general: Formazan colour is commonly taken as a measure of viable cells.

Structures are written as SMILES.

For `C=CC1=C(C)c2cc3[n-]c(cc4[n-]c(cc5nc(cc1n2)C(C)=C5C=C)c(C)c4CCC(=O)O)c(CCC(=O)O)c3C.[Zn+2]` [ZnPP], in experiment [1], the “expression of HO-1 mRNA and protein” value is given as “down regulated”. For the same compound, in experiment [2], the pSTAT3 level result is on record as “decreased”.
On the same counts, the results for `C=CC1=C(C)c2cc3[n-]c(cc4nc(cc5[n-]c(cc1n2)c(C)c5CCC(=O)[O-])C(CCC(=O)[O-])=C4C)c(C)c3C=C.[Co+2].[H+].[H+]` [CoPP, cobalt protoporphyrin] are “significantly up regulated” and “increased”.
For `C=CC1=C(C)c2cc3[n-]c(cc4[n-]c(cc5nc(cc1n2)C(C)=C5C=C)c(C)c4CCC(=O)O)c(CCC(=O)O)c3C.[Fe+2]` [HEME], the “expression of HO-1 mRNA and protein” value in experiment [1] is “significantly up regulated”. For the same compound, in experiment [3], the “fold-change of down regulated genes (F2R, OAS1)” value is recorded as “greater than 2 fold” and the “fold-change of up regulated genes (MMP3, C/EBPb, FCGR1A, JUNB, NFκB, SOCS3, SOCS4, STAT4)” value is “greater than 2 fold”. Besides, the “expression of CXCL10 mRNA” value in experiment [4] is given as “significantly up regulated”. The CXCL10 promoter activity result in experiment [4] (data not shown) was “enhances CXCL10 promoter activity in a dose-dependent manner”. In experiment [2] (FIG. 6A), the “HEME concentration at which pSTAT3 peaked” value was determined as 5 μM and the “HEME concentration from which pSTAT3 was increased” value amounted to 1 μM.
`N#C/C(=C\c1ccc(O)c(O)c1)C(=O)NCc1ccccc1` [AG490, tyrphostin AG490]: the HO-1 protein expression result in experiment [1] (HEME-induced, pSTAT3 reduced, FIG. 6B, 6C) was “inhibited”. Besides, the “expression of CXCL10” value in experiment [4] (protein relative to actin, FIG. 6D, 6E) is “reduced expression”. Besides, the “HEME-induced apoptosis / cell death in HBVEC” value in experiment [5] was “can rescue the HEME-induced apoptosis”. The pSTAT3 level result in experiment [2] is given as “reduced”.
